Experimental data reported in PubChem BioAssay AID1918957 (Molecular Pharmacology Branch, DTP, NCI, 2023).

System: NCI-H1876 complex spheroid viability
Experiment: Anticancer human tumor NCI-H1876 cell line growth inhibition [LSD1];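 note: spheroids exposed to compounds for one week before readout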;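 for viability, T/C: 100% = DMSO vehicle-treated spheroids so lower means fewer viable cells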
Conditions: for IC50: curve of first compound; for viability, T/C: stronger effect = lower value
In short: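 Drug combinations with the LSD1 inhibitor iadademstat tested on tumor cells co-cultured as spheroids with endothelial cells and mesenchymal stem cells. Concentrations descended in half-log increments from clinical Cmax or 10 microM.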

[1] = second compound 0.1 µM, first compound 0.00316 µM
[2] = second compound 0.1 µM, first compound 0.01 µM
[3] = second compound 0.1 µM, first compound 0.0316 µM
[4] = second compound 0.1 µM, first compound 0.1 µM
[5] = second compound 0.316 µM, first compound 0.00316 µM
[6] = second compound 0.316 µM, first compound 0.01 µM
[7] = second compound 0.316 µM, first compound 0.0316 µM
[8] = second compound 0.316 µM, first compound 0.1 µM
[9] = second compound 1 µM, first compound 0.00316 µM
[10] = second compound 1 µM, first compound 0.01 µM
[11] = second compound 1 µM, first compound 0.0316 µM
[12] = second compound 1 µM, first compound 0.1 µM
[13] = second compound 3.16 µM, first compound 0.00316 µM
[14] = second compound 3.16 µM, first compound 0.01 µM
[15] = second compound 3.16 µM, first compound 0.0316 µM
[16] = second compound 3.16 µM, first compound 0.1 µM
[17] = second compound 10 µM, first compound 0.00316 µM
[18] = second compound 10 µM, first compound 0.01 µM
[19] = second compound 10 µM, first compound 0.0316 µM
[20] = second compound 10 µM, first compound 0.1 µM

In the case of `COc1cc(Nc2ncc3c(n2)-c2ccc(Cl)cc2C(c2c(F)cccc2OC)=NC3)ccc1C(=O)O` + NC1CCC(NC2CC2c2ccccc2)CC1, the IC50 (second compound 0.1 µM) is reported as 33.3 nM, the IC50 (second compound 0.316 µM) is reported as 18.1 nM and the IC50 (second compound 1 µM) is reported as 34.7 nM. It also gave an IC50 (second compound 3.16 µM) of 20 nM, an IC50 (second compound 10 µM) of 17.2 nM and a viability, T/C [1] of 67.7%. It also gave a viability, T/C [2] of 59.1%, a viability, T/C [3] of 51.7% and a viability, T/C [4] of 39.5%. For the same compound, the viability, T/C (second compound 0.1 µM, first compound 0.316 µM) was 31.7%, the viability, T/C (second compound 0.1 µM, first compound 1 µM) was 25.7% and the viability, T/C [5] was 64.9%. It also gave a viability, T/C [6] of 52.9%, a viability, T/C [7] of 45.6% and a viability, T/C [8] of 37.6%. It also gave a viability, T/C (second compound 0.316 µM, first compound 0.316 µM) of 35%, a viability, T/C (second compound 0.316 µM, first compound 1 µM) of 23.7% and a viability, T/C [9] of 62.3%. The viability, T/C [10] was 57.5%, the viability, T/C [11] was 51.8% and the viability, T/C [12] was 40%. It also gave a viability, T/C (second compound 1 µM, first compound 0.316 µM) of 32.3%, a viability, T/C (second compound 1 µM, first compound 1 µM) of 19.9% and a viability, T/C [13] of 62.9%. For the same compound, the viability, T/C [14] was 52.1%, the viability, T/C [15] was 47.2% and the viability, T/C [16] was 41.2%. For the same compound, the viability, T/C (second compound 3.16 µM, first compound 0.316 µM) was 28.6%, the viability, T/C (second compound 3.16 µM, first compound 1 µM) was 22.1% and the viability, T/C [17] was 60.9%. It also gave a viability, T/C [18] of 52.7%, a viability, T/C [19] of 50.3% and a viability, T/C [20] of 33.2%. For the same compound, the viability, T/C (second compound 10 µM, first compound 0.316 µM) was 31.5% and the viability, T/C (second compound 10 µM, first compound 1 µM) was 22.5%.
`Cn1ncnc1C1c2n[nH]c(=O)c3cc(F)cc(c23)NC1c1ccc(F)cc1` (stereo not given) + NC1CCC(NC2CC2c2ccccc2)CC1 showed an IC50 (second compound 0.1 µM) of over 100 nM, an IC50 (second compound 0.316 µM) of over 100 nM and an IC50 (second compound 1 µM) of over 100 nM. It also gave an IC50 (second compound 3.16 µM) of over 100 nM, an IC50 (second compound 10 µM) of over 100 nM and a viability, T/C (second compound 0.1 µM, first compound 0.000316 µM) of 99.3%. The viability, T/C (second compound 0.1 µM, first compound 0.001 µM) was 107%, the viability, T/C [1] was 96.6% and the viability, T/C [2] was 98.3%. It also gave a viability, T/C [3] of 91.7%, a viability, T/C [4] of 92% and a viability, T/C (second compound 0.316 µM, first compound 0.000316 µM) of 98%. The viability, T/C (second compound 0.316 µM, first compound 0.001 µM) was 114%, the viability, T/C [5] was 97.3% and the viability, T/C [6] was 103%. The viability, T/C [7] was 104%, the viability, T/C [8] was 82.8% and the viability, T/C (second compound 1 µM, first compound 0.000316 µM) was 107%. For the same compound, the viability, T/C (second compound 1 µM, first compound 0.001 µM) was 102%, the viability, T/C [9] was 102% and the viability, T/C [10] was 98%. For the same compound, the viability, T/C [11] was 95.8%, the viability, T/C [12] was 87.9% and the viability, T/C (second compound 3.16 µM, first compound 0.000316 µM) was 115%. It also gave a viability, T/C (second compound 3.16 µM, first compound 0.001 µM) of 117%, a viability, T/C [13] of 104% and a viability, T/C [14] of 100%. For the same compound, the viability, T/C [15] was 88.1%, the viability, T/C [16] was 104% and the viability, T/C (second compound 10 µM, first compound 0.000316 µM) was 104%. The viability, T/C (second compound 10 µM, first compound 0.001 µM) was 130%, the viability, T/C [17] was 114% and the viability, T/C [18] was 95%. For the same compound, the viability, T/C [19] was 100% and the viability, T/C [20] was 89.7%.
